Assay results reported in PubChem BioAssay (NCI).
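Dose response: 5 concentrations. Exposure: 48 h. Format: 96-well plates. Endpoint: linear interpolation; highest concentration if not reached. GI50: concentration for 50% inhibition of growth. At the TGI there is no net growth.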

Columns and labels:
Assay in all cases: NCI tumour cell line growth inhibition, 48 h
HCT-116 colon = tested on: HCT-116 colon
HOP-62 NSCLC = tested on: HOP-62 NSCLC
OVCAR-4 ovarian = tested on: OVCAR-4 ovarian
MALME-3M melanoma = tested on: MALME-3M melanoma
RPMI-8226 leukemia = tested on: RPMI-8226 leukemia
ACHN renal = tested on: ACHN renal
EKVX NSCLC = tested on: EKVX NSCLC
HS 578T breast = tested on: HS 578T breast
SF-295 CNS = tested on: SF-295 CNS
MCF7 breast = tested on: MCF7 breast
MDA-MB-231 breast = tested on: MDA-MB-231 breast
TK-10 renal = tested on: TK-10 renal
OVCAR-8 ovarian = tested on: OVCAR-8 ovarian
K-562 leukemia = tested on: K-562 leukemia
SK-MEL-28 melanoma = tested on: SK-MEL-28 melanoma
SF-539 CNS = tested on: SF-539 CNS
OVCAR-5 ovarian = tested on: OVCAR-5 ovarian
LOX IMVI melanoma = tested on: LOX IMVI melanoma
786-0 renal = tested on: 786-0 renal
SF-268 CNS = tested on: SF-268 CNS
CAKI-1 renal = tested on: CAKI-1 renal
UACC-257 melanoma = tested on: UACC-257 melanoma
COLO 205 colon = tested on: COLO 205 colon
U251 CNS = tested on: U251 CNS
HCT-15 colon = tested on: HCT-15 colon
HCC-2998 colon = tested on: HCC-2998 colon
SN12C renal = tested on: SN12C renal
A498 renal = tested on: A498 renal
UO-31 renal = tested on: UO-31 renal
KM12 colon = tested on: KM12 colon
NCI/ADR-RES ovarian = tested on: NCI/ADR-RES ovarian
OVCAR-3 ovarian = tested on: OVCAR-3 ovarian
SR leukemia = tested on: SR leukemia
T-47D breast = tested on: T-47D breast
HL-60(TB) leukemia = tested on: HL-60(TB) leukemia
NCI-H460 lung = tested on: NCI-H460 lung
PC-3 prostate = tested on: PC-3 prostate
IGROV1 ovarian = tested on: IGROV1 ovarian
NCI-H226 lung = tested on: NCI-H226 lung
SK-OV-3 ovarian = tested on: SK-OV-3 ovarian
SW-620 colon = tested on: SW-620 colon
SNB-75 CNS = tested on: SNB-75 CNS
SNB-19 CNS = tested on: SNB-19 CNS
MDA-MB-435 = tested on: MDA-MB-435
NCI-H522 lung = tested on: NCI-H522 lung
UACC-62 melanoma = tested on: UACC-62 melanoma
A549 NSCLC = tested on: A549 NSCLC
BT-549 breast = tested on: BT-549 breast
HT29 colon = tested on: HT29 colon
MOLT-4 leukemia = tested on: MOLT-4 leukemia
CCRF-CEM leukemia = tested on: CCRF-CEM leukemia
HOP-92 NSCLC = tested on: HOP-92 NSCLC
RXF 393 renal = tested on: RXF 393 renal
DU-145 prostate = tested on: DU-145 prostate
M14 melanoma = tested on: M14 melanoma
SK-MEL-5 melanoma = tested on: SK-MEL-5 melanoma
SK-MEL-2 melanoma = tested on: SK-MEL-2 melanoma
NCI-H23 lung = tested on: NCI-H23 lung
MDA-N = tested on: MDA-N

Structure (SMILES): Cc1cc(NC(=O)c2ccc(C)c(Nc3nccc(-c4cccnc4)n3)c2)cc(-n2cnc(C)c2)c1
- GI50 (HCT-116 colon): 0.932 µM
- TGI (HCT-116 colon): 3.28 µM
- GI50 (HOP-62 NSCLC): 1.68 µM
- TGI (HOP-62 NSCLC): 6.7 µM
- GI50 (OVCAR-4 ovarian): 0.999 µM
- TGI (OVCAR-4 ovarian): 2.19 µM
- GI50 (MALME-3M melanoma): 2.39 µM
- TGI (MALME-3M melanoma): 10.6 µM
- GI50 (RPMI-8226 leukemia): 6.45 µM
- TGI (RPMI-8226 leukemia): 27.6 µM
- GI50 (ACHN renal): 0.0734 µM
- TGI (ACHN renal): 3.96 µM
- GI50 (EKVX NSCLC): 4.27 µM
- TGI (EKVX NSCLC): 21.4 µM
- GI50 (HS 578T breast): 0.0847 µM
- TGI (HS 578T breast): 14.4 µM
- GI50 (SF-295 CNS): 3.07 µM
- TGI (SF-295 CNS): 12.2 µM
- GI50 (MCF7 breast): 1.86 µM
- TGI (MCF7 breast): 9.19 µM
- GI50 (MDA-MB-231 breast): 1.25 µM
- TGI (MDA-MB-231 breast): 5.45 µM
- GI50 (TK-10 renal): 0.0882 µM
- TGI (TK-10 renal): 2.2 µM
- GI50 (OVCAR-8 ovarian): 4.27 µM
- TGI (OVCAR-8 ovarian): 13.7 µM
- GI50 (K-562 leukemia): 0.0915 µM
- TGI (K-562 leukemia): 4.03 µM
- GI50 (SK-MEL-28 melanoma): 1.71 µM
- TGI (SK-MEL-28 melanoma): 6.19 µM
- GI50 (SF-539 CNS): 2.09 µM
- TGI (SF-539 CNS): 9.27 µM
- GI50 (OVCAR-5 ovarian): 3.54 µM
- TGI (OVCAR-5 ovarian): 10.5 µM
- GI50 (LOX IMVI melanoma): 4.09 µM
- TGI (LOX IMVI melanoma): 13 µM
- GI50 (786-0 renal): 1.56 µM
- TGI (786-0 renal): 6.12 µM
- GI50 (SF-268 CNS): 5.46 µM
- TGI (SF-268 CNS): 13.4 µM
- GI50 (CAKI-1 renal): 2.18 µM
- TGI (CAKI-1 renal): 7.15 µM
- GI50 (UACC-257 melanoma): 1.53 µM
- TGI (UACC-257 melanoma): 5.92 µM
- GI50 (COLO 205 colon): 2.4 µM
- TGI (COLO 205 colon): 7.23 µM
- GI50 (U251 CNS): 1.99 µM
- TGI (U251 CNS): 7.61 µM
- GI50 (HCT-15 colon): 7.49 µM
- TGI (HCT-15 colon): > 27 µM
- GI50 (HCC-2998 colon): 17.1 µM
- TGI (HCC-2998 colon): > 35.6 µM
- GI50 (SN12C renal): 0.005 µM
- TGI (SN12C renal): 12.8 µM
- GI50 (A498 renal): 1.86 µM
- TGI (A498 renal): 7.93 µM
- GI50 (UO-31 renal): 1.97 µM
- TGI (UO-31 renal): 5.3 µM
- GI50 (KM12 colon): 4.83 µM
- TGI (KM12 colon): 14.7 µM
- GI50 (NCI/ADR-RES ovarian): 7.18 µM
- TGI (NCI/ADR-RES ovarian): 23 µM
- GI50 (OVCAR-3 ovarian): 1.87 µM
- TGI (OVCAR-3 ovarian): 4.83 µM
- GI50 (SR leukemia): 2.46 µM
- TGI (SR leukemia): 11.8 µM
- GI50 (T-47D breast): 1.34 µM
- TGI (T-47D breast): 3.77 µM
- GI50 (HL-60(TB) leukemia): 14.5 µM
- TGI (HL-60(TB) leukemia): > 50 µM
- GI50 (NCI-H460 lung): 0.0794 µM
- TGI (NCI-H460 lung): 4.16 µM
- GI50 (PC-3 prostate): 4.76 µM
- TGI (PC-3 prostate): 17.3 µM
- GI50 (IGROV1 ovarian): 3.93 µM
- TGI (IGROV1 ovarian): 13.5 µM
- GI50 (NCI-H226 lung): 1.68 µM
- TGI (NCI-H226 lung): 5.39 µM
- GI50 (SK-OV-3 ovarian): 1.73 µM
- TGI (SK-OV-3 ovarian): 4.93 µM
- GI50 (SW-620 colon): 4.7 µM
- TGI (SW-620 colon): 26.4 µM
- GI50 (SNB-75 CNS): 1.1 µM
- TGI (SNB-75 CNS): 2.81 µM
- GI50 (SNB-19 CNS): 5.28 µM
- TGI (SNB-19 CNS): 18.1 µM
- GI50 (MDA-MB-435): 2.12 µM
- TGI (MDA-MB-435): 8.76 µM
- GI50 (NCI-H522 lung): 4.89 µM
- TGI (NCI-H522 lung): 15.3 µM
- GI50 (UACC-62 melanoma): 2.92 µM
- TGI (UACC-62 melanoma): 11 µM
- GI50 (A549 NSCLC): 0.492 µM
- TGI (A549 NSCLC): 8.7 µM
- GI50 (BT-549 breast): 0.159 µM
- TGI (BT-549 breast): 9.98 µM
- GI50 (HT29 colon): 1.73 µM
- TGI (HT29 colon): 5.33 µM
- GI50 (MOLT-4 leukemia): 15.6 µM
- TGI (MOLT-4 leukemia): > 50 µM
- GI50 (CCRF-CEM leukemia): 0.134 µM
- TGI (CCRF-CEM leukemia): > 50 µM
- GI50 (HOP-92 NSCLC): 0.716 µM
- TGI (HOP-92 NSCLC): 2.78 µM
- GI50 (RXF 393 renal): 1.56 µM
- TGI (RXF 393 renal): 4.88 µM
- GI50 (DU-145 prostate): 1.96 µM
- TGI (DU-145 prostate): 9.06 µM
- GI50 (M14 melanoma): 2.71 µM
- TGI (M14 melanoma): 10.1 µM
- GI50 (SK-MEL-5 melanoma): 5.04 µM
- TGI (SK-MEL-5 melanoma): 12.7 µM
- GI50 (SK-MEL-2 melanoma): 5.03 µM
- TGI (SK-MEL-2 melanoma): 12.9 µM
- GI50 (NCI-H23 lung): 9.44 µM
- TGI (NCI-H23 lung): > 34.1 µM

Structure (SMILES): CCOC(=O)C1(C(=O)OCC)CN(CC)CN(c2ccccc2)C1
- TGI (HCT-116 colon): > 100 µM
- TGI (HOP-62 NSCLC): 40.4 µM
- TGI (OVCAR-4 ovarian): 49.1 µM
- TGI (MALME-3M melanoma): 69.2 µM
- TGI (RPMI-8226 leukemia): 45 µM
- TGI (ACHN renal): 35.8 µM
- TGI (EKVX NSCLC): 34 µM
- TGI (HS 578T breast): > 100 µM
- TGI (SF-295 CNS): > 100 µM
- TGI (MCF7 breast): 35.1 µM
- TGI (TK-10 renal): 33.1 µM
- TGI (OVCAR-8 ovarian): 47.4 µM
- TGI (K-562 leukemia): > 100 µM
- TGI (SK-MEL-28 melanoma): 38.8 µM
- TGI (SF-539 CNS): 41.2 µM
- TGI (OVCAR-5 ovarian): 34.9 µM
- TGI (LOX IMVI melanoma): > 100 µM
- TGI (786-0 renal): 35.2 µM
- TGI (SF-268 CNS): > 100 µM
- TGI (CAKI-1 renal): 31.8 µM
- TGI (UACC-257 melanoma): 31.1 µM
- TGI (COLO 205 colon): 34.8 µM
- TGI (HCT-15 colon): 39 µM
- TGI (HCC-2998 colon): 28.9 µM
- TGI (SN12C renal): > 100 µM
- TGI (MDA-N): 87.9 µM
- TGI (A498 renal): > 100 µM
- TGI (UO-31 renal): 46.6 µM
- TGI (KM12 colon): > 100 µM
- TGI (NCI/ADR-RES ovarian): > 100 µM
- TGI (OVCAR-3 ovarian): 33.5 µM
- TGI (SR leukemia): 47.7 µM
- TGI (HL-60(TB) leukemia): 50.1 µM
- TGI (NCI-H460 lung): > 100 µM
- TGI (IGROV1 ovarian): 39.8 µM
- TGI (SK-OV-3 ovarian): > 100 µM
- TGI (SW-620 colon): > 100 µM
- TGI (SNB-75 CNS): 39.3 µM
- TGI (SNB-19 CNS): > 100 µM
- TGI (MDA-MB-435): 37.3 µM
- TGI (NCI-H522 lung): 56.1 µM
- TGI (UACC-62 melanoma): 68.5 µM
- TGI (A549 NSCLC): 49.3 µM
- TGI (BT-549 breast): 86.6 µM
- TGI (HT29 colon): 37.8 µM
- TGI (MOLT-4 leukemia): 40.4 µM
- TGI (CCRF-CEM leukemia): 59.1 µM
- TGI (HOP-92 NSCLC): 33.3 µM
- TGI (RXF 393 renal): 31.7 µM
- TGI (DU-145 prostate): 91.7 µM
- TGI (M14 melanoma): 39.1 µM
- TGI (SK-MEL-5 melanoma): > 100 µM
- TGI (NCI-H23 lung): 39 µM
